Laboratory results from patent US20090130098A1, “Specific therapy using integrin ligands for treating cancer” (Merck Patent GmbH, priority 2006, published 2009).

What was measured:
[1] = test system: recurrent glioblastoma (GBM); experiment: Phase IIa trial of cilengitide single agent therapy in recurrent glioblastoma; type: in vivo, human
Experimental: Background: The present phase IIa study was designed to evaluate the safety, toxicity, and clinical activity of the cyclic RGD pentapeptide cilengitide ((=cyclo-(Arg-Gly-Asp-DPhe-NMe-Val)), an inhibitor of integrins αvβ3 and αvβ5, as a single agent at doses of 500 and 2000 mg in patients (pts) with recurrent glioblastoma (GBM).
Methods: In this multicenter, open-label, randomized, uncontrolled study, pts with GBM and measurable disease that had relapsed after previous therapy with temozolomide and radiotherapy were randomized to receive cilengitide at doses of either 500 mg or 2000 mg i.v., 2×/week, until progression. Histopathology diagnosis and MRI imaging were subject to independent blinded review. The primary endpoint was Progression Free Survival (PFS) at 6 months (mths). Secondary endpoints included response, survival, time to disease progression, safety, tolerability and pharmacokinetics.

[2] = test system: newly diagnosed glioblastoma (GBM); experiment: Phase I/IIa trial of cilengitide with temozolomide and radiotherapy in newly diagnosed glioblastoma; type: in vivo, human; details: cilengitide 500 mg + TMZ/RT
Experimental: Purpose: To evaluate safety, toxicity, and efficacy of the combination of the cyclic RGD pentapeptide Cilengitide (=cyclo-(Arg-Gly-Asp-DPhe-NMe-Val)), an inhibitor of integrins αvβ3 and αvβ5, in addition to standard temozolomide (TMZ) and radiotherapy (RT).
Patients and methods: Fifty-two pts (PS 0-1: 92%, 2: 8%; median age 57 yrs) after biopsy (n= 9/17%) or tumor resection (n= 43/83%) were treated with standard TMZ/RT (Stupp et al. NEJM 2005). In addition Cilengitide (500 mg i.v., 2×/week) was started one week before TMZ/RT and given throughout for the duration of chemotherapy or until progression. Primary endpoint was progression free survival rate at 6 months (target: 65%). Patients were followed with MRI every 2 months. Histopathologic diagnosis and MRI imaging were independently reviewed, MGMT promotor methylation status was assessed in 45 (86.5%) pts.

various brain tumors = details: human, in vivo; cited from earlier work

SMILES: CC(C)[C@H]1C(=O)N[C@@H](CCCN=C(N)N)C(=O)NCC(=O)N[C@@H](CC(=O)O)C(=O)N[C@H](Cc2ccccc2)C(=O)N1C [cilengitide, cyclo-(Arg-Gly-Asp-DPhe-NMeVal)]
- pts who received 12 or more cycles of therapy ([1]; 500 mg): 4 pts
- pts who received 12 or more cycles of therapy ([1]; 2000 mg): 6 pts
- tumor control, 2000 mg vs 500 mg ([1]; 2000 mg 2x/week, not statistically significant): trend towards better tumor control
- Treatment related NCI CTC grade 3 AE: arthralgia/myalgia ([1]; at 500 mg): 1 patient
- Treatment related NCI CTC grade 3 AE: elevated liver enzymes ([1]; at 500 mg): 1 patient
- Treatment related NCI CTC grade 3 AE: weight increase/edema ([1]; at 2000 mg): 1 patient
- single agent activity in recurrent glioblastoma ([1]; in vivo): advantageous single agent activity
- non-hematologic grade 3: constitutional symptoms (asthenia, fatigue, anorexia) [2]: 3 n
- non-hematologic grade 3: deep venous thrombosis and pulmonary embolism [2]: 1 n
- non-hematologic grade 3: elevated liver function tests [2]: 1 n
- sigmoid perforation (grade 2) ([2]; patient with history of sigmoid diverticulosis): One patient
- MTD (various brain tumors): no known MTD
